Test results from article PMC5515859, “Metabolism of F18, a Derivative of Calanolide A, in Human Liver Microsomes and Cytosol” (Frontiers in Pharmacology, 2017).

Experiments:
[1] = tested on: human liver microsomes; assay: Incubation of F18 with human liver microsomes, metabolite profiling by LC-MS/MS; assay type: in vitro ADME; parameters: key: +: Metabolite detected; −: metabolite not detected; conditions: F18 50 μM, 1 h
Method: (§1) A stock solution of F18 (5 mM) was prepared in methanol. F18 (50 μM) was incubated with RLMs/DLMs/MLMs/HLMs and HLcy (0.5 mg protein/mL) in 50 mM Tris-HCl buffer containing 5 mM MgCl2 (pH 7.4) in a final volume of 200 μL. The final concentration of methanol in the incubation system was 1% (v/v). After 3 min of preincubation at 37°C, the reactions were initiated by the addition of NADPH-regenerating system (10-mM β-NADP, 100-mM 6-G-P and 10-U/mL 6-G-P-DH) or NADH. After incubation for 1 h, the reactions were terminated by the addition of two volumes of ice-cold acetonitrile. Samples without NADPH or NADH were included as controls. The incubation mixture was vortexed and centrifuged at 13,300 × g for 5 min. A 10 μL aliquot of the supernatant was injected into an LC-tandem mass spectrometer (LC-MS/MS) for analysis.
(§2) Metabolic profiling studies were performed with a Finnigan TSQ Quantum MS instrument with an electrospray ionization probe and a Finnigan SURVEYOR HPLC system (Thermo Finnigan, San Jose, CA, USA). HPLC was performed with a Zorbax SB-C18 column (2.1 × 100 mm, 3.5 μm, Agilent Corporation, CA, USA) with a column temperature of 35°C and a flow rate of 200 μL/min. F18 and its metabolites were eluted using a linear gradient method with a mobile phase consisting of solvent A (water with 0.1% formic acid) and solvent B (acetonitrile with 0.1% formic acid). […] The samples were analyzed in the positive-ionization mode, and the TSQ capillary temperature was set to 350°C. Nitrogen was used as both the sheath gas and the auxiliary gas and was delivered at 30 psi and 15 psi, respectively. The spray voltage and tube lens were set to 3,800 V and 123 V, respectively. The full-width half maximum (FWHM) was set to 0.7. MS data were acquired in the selective ion-recording mode or by collecting full scans from 200 to 600 m/z at 1 scan/s. The mass spectrometer and HPLC system were operated using Xcalibur 2.0.7 software.

[2] = tested on: monkey liver microsomes; assay: Incubation of F18 with monkey liver microsomes, metabolite profiling; assay type: in vitro ADME; parameters: key: +: Metabolite detected; −: metabolite not detected; conditions: F18 50 μM, 1 h
Method: as §1, §2

[3] = tested on: human liver cytosol; assay: Incubation of F18 with human liver cytosol, metabolite profiling; assay type: in vitro ADME; parameters: key: +: Metabolite detected; −: metabolite not detected; conditions: F18 50 μM, 1 h
Method: as §1, §2

[4] = tested on: VSV-G/HIV-1 viruses; assay: microbe, parasite or virus in culture; assay type: cell-based; conditions: for IC50: Human immunodeficiency virus 1, HEK-293T, 48 h, read-out: IC50, inhibition of HIV-1 replication
[5] = target: T1, recombinant FMO1 (Homo sapiens, UniProt Q01740); assay: Metabolism of F18 by cDNA-expressed FMO1; assay type: in vitro ADME; conditions: F18 10 μM, 50 pmol/mL enzyme, 1 h
T1 construct: purchased BD Gentest (Woburn, MA, USA)
T1 sequence (Q01740 1-532): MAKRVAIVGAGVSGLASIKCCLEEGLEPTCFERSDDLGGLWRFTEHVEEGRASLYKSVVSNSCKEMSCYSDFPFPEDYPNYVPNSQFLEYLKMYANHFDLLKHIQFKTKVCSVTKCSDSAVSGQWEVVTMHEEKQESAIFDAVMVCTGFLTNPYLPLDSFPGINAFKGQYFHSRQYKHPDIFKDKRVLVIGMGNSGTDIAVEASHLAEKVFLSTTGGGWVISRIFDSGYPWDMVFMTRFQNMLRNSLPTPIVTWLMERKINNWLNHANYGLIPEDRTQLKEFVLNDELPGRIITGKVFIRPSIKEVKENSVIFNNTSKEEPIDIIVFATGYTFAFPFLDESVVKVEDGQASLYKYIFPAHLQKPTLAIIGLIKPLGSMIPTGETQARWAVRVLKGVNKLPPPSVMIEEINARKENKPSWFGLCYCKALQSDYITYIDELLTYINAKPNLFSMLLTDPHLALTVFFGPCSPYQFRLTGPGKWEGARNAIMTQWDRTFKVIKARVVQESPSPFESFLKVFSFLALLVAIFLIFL
Method: (§3) To further verify the roles of CYPs and FMOs in the metabolism of F18 in humans, F18 (10 μM) was incubated individually with 14 cDNA-expressed human CYP isozymes (50-pmol/mL CYP1A1, CYP1A2, CYP2A6, CYP2B6, CYP2C8, CYP2C9, CYP2C19, CYP2D6, CYP2E1, CYP2J2, CYP3A4, CYP4F2, CYP4F3, and CYP4A11) and three cDNA-expressed FMO enzymes (50-pmol/mL FMO1, FMO3, and FMO5). The incubation conditions were similar to those used for HLMs (described above), with the exception of the incubating time […]. Samples incubated without NADPH were used as the negative control.

[6] = target: T2, recombinant FMO3 (Homo sapiens, UniProt P31513); assay: Metabolism of F18 by cDNA-expressed FMO3; assay type: in vitro ADME; conditions: F18 10 μM, 50 pmol/mL enzyme, 1 h
T2 construct: purchased BD Gentest (Woburn, MA, USA)
T2 sequence (P31513 1-532): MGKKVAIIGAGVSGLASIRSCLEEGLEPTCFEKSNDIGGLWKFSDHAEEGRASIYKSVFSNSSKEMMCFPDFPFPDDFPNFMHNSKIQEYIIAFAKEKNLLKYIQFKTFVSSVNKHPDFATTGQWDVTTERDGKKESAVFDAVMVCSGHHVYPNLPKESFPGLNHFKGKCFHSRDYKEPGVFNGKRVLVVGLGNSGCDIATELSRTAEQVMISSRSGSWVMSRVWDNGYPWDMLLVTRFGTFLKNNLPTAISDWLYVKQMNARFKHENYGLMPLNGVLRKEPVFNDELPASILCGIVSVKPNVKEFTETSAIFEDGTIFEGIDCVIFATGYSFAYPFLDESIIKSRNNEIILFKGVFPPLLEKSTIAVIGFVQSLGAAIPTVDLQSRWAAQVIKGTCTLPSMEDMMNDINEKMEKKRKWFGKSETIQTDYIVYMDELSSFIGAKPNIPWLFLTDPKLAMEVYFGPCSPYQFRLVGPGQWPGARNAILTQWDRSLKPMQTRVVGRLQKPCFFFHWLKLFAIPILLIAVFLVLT
Method: as §3

CCCc1cc(=O)oc2c3c(c4c(c12)OC(C)(C)C=C4)O[C@H](CCl)C[C@H]3O (relative stereo) [Metabolite M3-1, trans-12-hydroxy F18]
F18 metabolite detected in HLM [1]: +
F18 metabolite detected in MLM [2]: +
F18 metabolite detected in HLcy with NADH [3]: +
F18 metabolite detected in HLcy with NADPH [3]: +
IC50 [4]: 0.034 µM
Metabolite detected in incubation with recombinant FMO1 [5]: detected
Metabolite detected in incubation with recombinant FMO3 [6]: detected

CCCc1cc(=O)oc2c3c(c4c(c12)OC(C)(C)C=C4)O[C@H](CCl)C[C@@H]3O (relative stereo) [Metabolite M3-2, cis-12-hydroxy F18]
F18 metabolite detected in HLM [1]: +
F18 metabolite detected in MLM [2]: +
F18 metabolite detected in HLcy with NADH [3]: +
F18 metabolite detected in HLcy with NADPH [3]: +
IC50 [4]: 0.051 µM
Metabolite detected in incubation with recombinant FMO1 [5]: detected
Metabolite detected in incubation with recombinant FMO3 [6]: detected

CCCc1cc(=O)oc2c3c(c4c(c12)OC(C)(C)C=C4)OC(CO)CC3=O (stereo not drawn) [Metabolite M1]
F18 metabolite detected in HLM [1]: +
F18 metabolite detected in MLM [2]: +
F18 metabolite detected in HLcy with NADH [3]: −
F18 metabolite detected in HLcy with NADPH [3]: −
Potency against HIV-1 relative to the parent compound [4]: one fifth
Metabolite detected in incubation with recombinant FMO1 [5]: not detected
Metabolite detected in incubation with recombinant FMO3 [6]: not detected
